Experimental data from PMC4232510, “Identification of Functionally Important Residues of the Rat P2X4 Receptor by Alanine Scanning Mutagenesis of the Dorsal Fin and Left Flipper Domains” (PLoS ONE, 2014).
Like-named read-outs stand apart in the source and are kept apart here.

Legend:
P2X4R N287A = test system: P2X4R N287A; set-up: method as in PMID 17663752, PMID 15632318; key: n.f.: non-functional mutants; ↑: mutant with significant increased EC50 in comparison to WT (values represent fold increase); ≈: close to WT receptor; D: affected time-constant of the desensitizing current response; settings: cited from earlier work
P2X4R D280A = test system: P2X4R D280A; set-up: method as in PMID 17663752, PMID 15632318; settings: cited from earlier work
P2X4R L214A = settings: cited from earlier work
P2X3R E197A = test system: P2X3R E197A; set-up: method as in PMID 15475563; key: n.f.: non-functional mutants; ↑: mutant with significant increased EC50 in comparison to WT (values represent fold increase); ≈: close to WT receptor; D: affected time-constant of the desensitizing current response; settings: cited from earlier work
rP2X4R R203A mutant = biological target: T1, rP2X4R R203A mutant (Rattus norvegicus, UniProt P51577, R203A); experiment: whole-cell patch clamp, HEK293T cells expressing mutant; format: cell-based
T1 construct: expressed in transfected cells; host or cells: HEK293T

rP2X4R N293A mutant = biological target: T2, rP2X4R N293A mutant (Rattus norvegicus, UniProt P51577, N293A); experiment: as above; format: cell-based
T2 construct: expressed in transfected cells; host or cells: HEK293T

P2X4R V288A = test system: P2X4R V288A; set-up: method as in PMID 24943126; settings: cited from earlier work
P2X3R T196A = test system: P2X3R T196A; set-up: method as in PMID 16226373; key: n.f.: non-functional mutants; ↑: mutant with significant increased EC50 in comparison to WT (values represent fold increase); ≈: close to WT receptor; D: affected time-constant of the desensitizing current response; settings: cited from earlier work
P2X4R H286A = test system: P2X4R H286A; set-up: method as in PMID 17663752, PMID 15632318, PMID 12819199, PMID 15246547; settings: cited from earlier work
P2X4R I205A = test system: P2X4R I205A; set-up: method as in PMID 24943126; settings: cited from earlier work
P2X3R D266A = test system: P2X3R D266A; set-up: method as in PMID 15475563; key: n.f.: non-functional mutants; ↑: mutant with significant increased EC50 in comparison to WT (values represent fold increase); ≈: close to WT receptor; D: affected time-constant of the desensitizing current response; settings: cited from earlier work
[1] = decay after removal of 1 or 3 µM ATP, 3 µM IVM

T1 sequence (P51577 whole entry R203A): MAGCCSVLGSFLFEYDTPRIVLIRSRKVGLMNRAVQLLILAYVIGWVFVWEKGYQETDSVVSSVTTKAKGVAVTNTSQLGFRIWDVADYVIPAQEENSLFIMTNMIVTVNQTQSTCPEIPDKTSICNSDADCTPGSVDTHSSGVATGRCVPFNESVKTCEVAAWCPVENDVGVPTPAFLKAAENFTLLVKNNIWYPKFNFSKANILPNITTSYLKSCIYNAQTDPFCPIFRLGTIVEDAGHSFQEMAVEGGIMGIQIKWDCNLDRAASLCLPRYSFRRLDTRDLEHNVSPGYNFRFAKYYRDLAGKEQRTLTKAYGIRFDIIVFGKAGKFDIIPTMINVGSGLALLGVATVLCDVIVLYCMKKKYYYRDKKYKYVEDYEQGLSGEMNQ
T2 sequence (P51577 whole entry N293A): as the sequence (P51577 whole entry R203A) above, with A203R, N293A counted along it

For `Nc1ncnc2c1ncn2[C@@H]1O[C@H](COP(=O)(O)OP(=O)(O)OP(=O)(O)O)[C@@H](O)[C@H]1O` [ATP], the “change in EC50 for ATP” value (P2X4R N287A) is listed as “N287A: ≈[10], [52]”, the “fold increase of EC50 for ATP in comparison to WT” value (from here on “fold increase of EC50 for ATP”) (P2X4R D280A) is listed as “D280A ↑>100x[10], [52]” and the “fold increase of EC50 for ATP” value (P2X4R L214A; ref 41) is listed as 8 x. For the same compound, the “fold increase of EC50 for ATP” value (P2X4R L214A; ref 49) was 3 x, the change in desensitization (P2X3R E197A) was “E197A: D[53]” and the “Imax+IVM” value (rP2X4R R203A mutant; ATP after 3 µM IVM 4-6 min) was 2.9 ± 0.6 nA. The “τoff +IVM” value (rP2X4R R203A mutant; [1]) was 4.6 ± 0.3 s, the “Imax+IVM” value (rP2X4R N293A mutant; ATP after 3 µM IVM 4-6 min) was 2.0 ±0.5 nA and the “τoff +IVM” value (rP2X4R N293A mutant; [1]) was 2.8 ± 0.2 s. The “fold increase of EC50 for ATP” value (P2X4R V288A) was “V288A: ↑2x[49]”, the “change in EC50 for ATP” value (P2X3R T196A) was “T196A: ≈[54]” and the “fold increase of EC50 for ATP” value (P2X4R H286A) was “H286A: ↑2–4x[10], [52], [57], [60]”. The “fold increase of EC50 for ATP” value (P2X4R I205A) was “I205A: ↑2,5x[49]” and the change in desensitization (P2X3R D266A) was “D266A: D[53]”.
